Tests used:
[1] = molecular target: Ba/F3 cells, ABL1 T315I (Homo sapiens, UniProt P00519, T315I, cells depend on it); experiment: 96-well XTT cell survival assay, Ba/F3 ABL1 T315I; type: cell-based; details: 72 hours, read-out: ABL1 T315I XTT [Ba/F3] IC50
Experimental: (§1) MV4-11 and THP cells were maintained in Iscove's Modified Dulbecco's Medium supplemented with 10% fetal bovine serum (FBS) and penicillin/streptomycin, Ba/F3 cells were maintained in RPMI 1640 supplemented with 10% FBS, penicillin/streptomycin and 5 ng/ml recombinant mouse IL-3.
(§2) Compounds were tested in the following assays in duplicate.
(§3) 96-well XTT assay: Cells (e.g. BaF3 315I, M351I, or E255K cells) were grown in growth media containing various concentrations of compounds (duplicates) on a 96-well plate for 72 hours at 37° C. The starting cell number was 5000-8000 cells per well and volume was 120 μl. At the end of the 72-hour incubation, 40 μl of XTT labeling mixture (50:1 solution of sodium 3′-[1-(phenylamino-carbonyl)-3,4-tetrazolium]-bis(4-methoxy-6-nitro)benzene sulfonic acid hydrate and Electron-coupling reagent: PMS (N-methyl dibenzopyrazine methyl sulfate) were added to each well of the plate. After an additional 2-6 hours of incubation at 37° C., the absorbance reading at 405 nm with background correction at 650 nm was measured with a spectrophotometer.

[2] = molecular target: T1, unphosphorylated T315I Abl kinase domain (Mus musculus, UniProt P00520, T315I); experiment: c-Abl T315I 0P bioassay (pyruvate kinase/lactate dehydrogenase coupled enzyme assay); type: biochemical; details: zero phosphorylation state (0P), 10 μM ATP, read-out: AbI T315I 0P IC50
T1 construct: purified and unphosphorylated T315I Abl kinase domain; made in house; host or cells: E. coli BL21(DE3) (Codon+RIL or pSA0145 strain)
T1 sequence (P00520 242-493 T315I limits assumed): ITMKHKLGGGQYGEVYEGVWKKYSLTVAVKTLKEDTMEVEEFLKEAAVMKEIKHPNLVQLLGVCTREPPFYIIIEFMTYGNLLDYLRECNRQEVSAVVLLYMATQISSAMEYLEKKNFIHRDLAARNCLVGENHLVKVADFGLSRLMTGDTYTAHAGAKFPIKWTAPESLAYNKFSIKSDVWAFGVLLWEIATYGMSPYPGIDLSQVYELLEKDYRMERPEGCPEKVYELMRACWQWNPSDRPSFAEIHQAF
Text: Although the first of these examples uses the kinase domain of a mutant form of Abl T315I (“Abl T315I KD”), the kinase assays may use various forms of mutant and wild type enzymes, including, for example, the entire protein, the kinase domain, or a portion thereof (e.g. Abl Y393F). The kinases used in the assays may also be of varying phosphorylation states. In the c-Abl example, a mutant kinase at a zero phosphorylation state was used. c-Abl Pyruvate Kinase/Lactate Dehydrogenase Coupled Enzyme Assay
In the c-Abl Pyruvate Kinase (PK)/Lactate Dehydrogenase (LDH) Coupled Assay the protein kinase dependant phosphorylation of a substrate peptide was coupled to the oxidation of NADH. The oxidation of NADH to NAD+ was detected by monitoring a decrease in absorbance at 340 nm.
Materials: Abl substrate peptide=EAIYAAPFAKKK (SEQ ID NO: 1)—OH (Biopeptide, San Diego, Calif.); pNADH (Sigma Cat#N-8129, FW=709.4); 2M MgC12; 1M HEPES buffer, pH 7.5; Phosphoenolpyruvate (PEP) (Sigma Cat#P-7002, FW=234); Lactate dehydrogenase (LDH) (Worthington Biochemical Cat#2756); Pyruvate Kinase (PK) (Sigma Cat#P-9136); ATP (Sigma Cat#A-3377, FW=551); Greiner 384-well UV star plate; and purified and unphosphorylated T315I Abl kinase domain.
Stock Solutions: 10 mM NADH (7.09 mg/ml in miliQH2O) made fresh daily; 10 mM Abl substrate peptide (13.4 mg/ml in miliQH2O) stored at −20° C.; 100 mM HEPES buffer, pH 7.5 (5 ml 1M stock+45 ml miliQH2O); 100 mM MgCl2 (5 ml 2M MgCl2+95 ml dH2O); 100 MM PEP (23.4 mg/ml in dH2O) stored at −20° C.; 10 mM ATP (5.51 mg/ml in dH2O) stored at −20° C. (diluted 50 μl into total of 10 ml miliQH2O daily=50 μM ATP working stock); 1000 U/ml PK (U/mg varies with lot) flash-frozen under liquid N2 and stored at −80° C.; and 1000 U/ml LDH (U/mg varies with lot) flash-frozen under liquid N2 and stored at −80° C.
Standard Assay Setup for 384-well format (50 μl reaction): 300 μM NADH; 10 mM MgCl2; 2 mM PEP; 45U/ml PK; 60 U/ml LDH; 200 μM Abl substrate peptide; 2.5 μl test compound (in DMSO); 2 μg/ml Abl kinase domain; 10 μM ATP; 100 mM HEPES buffer. Positive controls contained DMSO with no test compound. Negative controls contained 5 μl of 0.5M EDTA (50 mM in the assay). The dephosphorylated form of the c-Abl T315I mutant was used in the biochemical screening assays. The kinase reaction was initiated at time t=0 by the addition of ATP.
Activity was measured by following the time-dependent loss of NADH by absorbance spectroscopy at 340 nm. The linear portion of the resulting progress curve was then analyzed by linear regression to get the activity in absorbance units/time, reported as the slope of that best fit line (moles/unit time can be calculated from using molar extinction coefficient for NADH at 340 nm, 6250M^−1 cm^−1).
Data was evaluated using the equation: Z′=1−[3*(σ++σ−)/|μ+−μ−|](Zhang, et al., 1999 J Biomol Screening 4(2) 67-73), where μ denotes the mean and σ the standard deviation. The subscript designates positive or negative controls. The Z′ score for a robust screening assay should be ≧0.50. The typical threshold=μ+−3*σ+. Any value that falls below the threshold was designated a “hit”.
Dose response was analyzed using the equation: y=min+{(max−min)/(1+10^[compound]−logIC50)}, where y is the observed initial slope, max=the slope in the absence of inhibitor, min=the slope at infinite inhibitor, and the IC50 is the [compound] that corresponds to ½ the total observed amplitude (Amplitude=max−min).
To measure modulation, activation, or inhibition of Abl KD, a test compound was added to the assay at a range of concentrations. Inhibitors may inhibit Abl KD activity at an IC50 in the micromolar range, the nanomolar range, or, for example, in the subnanomolar range.
An open-reading frame for c-Abl was amplified from a Mus musculus (mouse) cDNA library prepared from freshly harvested mouse liver using a commercially available kit (invitrogen) by PCR using the following primers: […]
The c-Abl T315I KD (kinase domain) was purified as follows. […]

[3] = molecular target: Ba/F3 cells, ABL1 WT (Homo sapiens, UniProt P00519); experiment: 96-well XTT cell survival assay, Ba/F3 ABL1 WT; type: cell-based; details: 72 hours, read-out: ABL1 WT XTT [Ba/F3] IC50
Experimental: as §1, §2, §3

SMILES | GI50 [1] [nM] | IC50 [2] [nM] | GI50 [3] [nM]
CN(C)C(=O)C(O)c1cncc(-c2cnc3[nH]cc(-c4cccc(C(F)(F)F)c4)c3c2)c1 (stereo not drawn) | > 1000 | < 50 | > 1000
CC[C@H](O)[C@@H](O)c1cccc(-c2cnc3[nH]nc(-c4ccccc4OC)c3c2)c1 | < 1000 | < 50 | < 1000
COc1ccccc1-c1n[nH]c2ncc(-c3cccc(C(C)(O)C(=O)N4CC(O)C4)c3)cc12 (stereo not drawn) | > 1000 | < 50 | > 1000
COc1ccccc1-c1n[nH]c2ncc(-c3cccc(C(O)C(=O)N(C)CCC#N)c3)cc12 (stereo not drawn) | < 1000 | < 50 | < 1000
COc1ccccc1-c1n[nH]c2ncc(-c3cccc(C(O)C(=O)N(C)CCNC(C)(C)C)c3)cc12 (stereo not drawn) | < 1000 | < 50 | < 1000
COc1ccccc1-c1c[nH]c2ncc(-c3cccc(C(O)c4ncccc4C(F)(F)F)c3)cc12 (stereo not drawn) | > 1000 | < 50 | > 1000
CCN(CC)CCN(CC)C(=O)C(O)c1cccc(-c2cnc3[nH]nc(-c4ccccc4OC)c3c2)c1 (stereo not drawn) | < 1000 | < 50 | < 1000
COc1ccc(F)cc1-c1c[nH]c2ncc(-c3cc(C(O)C(=O)N(C)C)c[n+]([O-])c3)cc12 (stereo not drawn) | > 1000 | < 50 | > 1000
CN(C)C(=O)C(O)c1cncc(-c2cnc3[nH]cc(-c4ccc(OC(F)(F)F)cc4)c3c2)c1 (stereo not drawn) | > 1000 | 50 to 500 | > 1000
COc1ccccc1-c1c[nH]c2ncc(-c3cncc(C(O)CC(C)C)c3)cc12 (stereo not drawn) | < 1000 | < 50 | < 1000
COc1ccccc1-c1n[nH]c2ncc(-c3cccc(C(O)c4ncccc4C(F)(F)F)c3)cc12 (stereo not drawn) | > 1000 | < 50 | > 1000
COc1ccccc1-c1c[nH]c2ncc(-c3cccc(C(O)C(=O)N(C)Cc4ccnn4C)c3)cc12 (stereo not drawn) | < 1000 | < 50 | < 1000
COc1ccccc1-c1c[nH]c2ncc(-c3cncc(C(O)C(N)=O)c3)cc12 (stereo not drawn) | > 1000 | < 50 | > 1000
COc1ccccc1-c1c[nH]c2ncc(-c3cccc(C(O)C(=O)N(C)C)n3)cc12 (stereo not drawn) | > 1000 | < 50 | > 1000
COc1ccccc1-c1n[nH]c2ncc(-c3cccc(C(O)C(=O)N(C)C4CCS(=O)(=O)C4)c3)cc12 (stereo not drawn) | > 1000 | < 50 | < 1000
COc1ccccc1-c1c[nH]c2ncc(-c3cccc(C(O)C(=O)N(C)CCN(C)C)n3)cc12 (stereo not drawn) | > 1000 | < 50 | > 1000
CN(C)C(=O)C(O)c1cncc(-c2cnc3[nH]cc(-c4ccnn4CCO)c3c2)c1 (stereo not drawn) | > 1000 | 50 to 500 | > 1000
COc1ccccc1-c1n[nH]c2ncc(-c3cccc(C(O)c4ncccc4C)c3)cc12 (stereo not drawn) | < 1000 | < 50 | < 1000
CNCCN(C)C(=O)C(N)c1cccc(-c2cnc3[nH]cc(-c4ccccc4OC)c3c2)c1 (stereo not drawn) | > 1000 | < 50 | > 1000
CNC(C(=O)N(C)CCN(C)C)c1cccc(-c2cnc3[nH]nc(-c4ccccc4OC)c3c2)c1 (stereo not drawn) | > 1000 | < 50 | > 1000
COc1ccccc1-c1c[nH]c2ncc(-c3cccc(C(C(=O)N(C)CCN(C)C)N4CCNCC4)c3)cc12 (stereo not drawn) | > 1000 | < 50 | > 1000
COc1ccccc1-c1n[nH]c2ncc(-c3cccc(C(C)C(=O)N4CC(O)C4)c3)cc12 (stereo not drawn) | > 1000 | < 50 | > 1000
COc1ccccc1-c1n[nH]c2ncc(-c3cccc(C(O)C(=O)NC4CCN(C)CC4)c3)cc12 (stereo not drawn) | > 1000 | < 50 | > 1000
COc1ccccc1-c1c[nH]c2ncc(-c3cccc(C(O)C(=O)N(C)CC4CCOCC4)c3)cc12 (stereo not drawn) | < 1000 | < 50 | < 1000
Cc1cccc(-c2c[nH]c3ncc(-c4cncc(C(O)C(=O)N(C)C)c4)cc23)c1 (stereo not drawn) | < 1000 | < 50 | < 1000
COc1ccccc1-c1n[nH]c2ncc(-c3cccc([C@H]4OCO[C@@H]4C(C)C)c3)cc12 | > 1000 | < 50 | > 1000
COc1ccccc1-c1c[nH]c2ncc(-c3cccc(C(C(=O)N(C)C)N4CCNCC4)c3)cc12 (stereo not drawn) | > 1000 | < 50 | > 1000
